Results on one compound are retold here after patent publication US10434199B2, “Picolinate cross-bridged cyclams, chelates with metallic cations and use thereof” (UNIVERSITÉ DE BRETAGNE OCCIDENTALE, priority 2013, dated 2019).

Series [1] in a line: Potentiometric titrations: protonation constants of the ligands. Type of series: physicochemical. The settings on record: 25.0° C., 0.10M KNO3. How it is done:
Equipment and work conditions. The potentiometric setup has been described in Roger, M. et al. Inorg. Chem. 2013, 52, 5246-5259. The titrant was a KOH solution prepared at ca. 0.1 M from a commercial ampoule of analytical grade, and its accurate concentration was obtained by application of the Gran's method upon titration of a standard HNO3 solution (Rossotti, F. J. and Rossotti, H. J. J. Chem. Educ. 1965, 42, 375-378). Ligand solutions were prepared at about 2.0×10^−3 M, and the Cu^2+ and Zn^2+ solutions at ca. 0.05 M from analytical grade nitrate salts and standardized by complexometric titrations with H4edta (ethylenediaminetetraacetic acid). Sample solutions for titration contained approximately 0.04 mmol of ligand in a volume of 30 mL where the ionic strength was kept at 0.10 M using KNO3 as background electrolyte. Metal cations were added at 0.9 equiv. of the ligand amount in complexation titrations. Batch titrations were prepared in a similar way but with each titration point corresponding to 1/10 of the amount of a conventional titration sample. Batch titration points were incubated in tightly closed vials at 25° C. until potential measurements attained complete stability, which happened within a week.
Measurements. All measurements were carried out at 25.0±0.1° C. under inert atmosphere. The electromotive force of the sample solutions was measured after calibration of the electrodes by titration of a standard HNO3 solution at 2.0×10^−3 M in the work conditions. The [H^+] of the solutions was determined by measurement of the electromotive force of the cell, E=E^o′+Q log [H^+]+Ej. The term pH is defined as −log [H^+]. E^o′ and Q were determined from the acid region of the calibration curves. Deviations from the Nernst law at very low pH (pH<2.5) were corrected with the VLpH software (Calibration software from the maker of Hyperquad available for free at http://www.hyperquad.co.uk/), which performs a [H^+] correction based on a very low pH calibration procedure. The liquid-junction potential, Ej, was otherwise found to be negligible for pH >2.5 under the experimental conditions used. […] Each titration consisted of 80-100 equilibrium points in the range of pH 2.5-11.5 (or 1.5-11.5 for Cu^2+ complexations), and at least two replicate titrations were performed for each particular system.
Calculations. […] The errors quoted are the standard deviations calculated by the fitting program from all the experimental data for each system.
The protonation constants of Hcb-te1pa were studied in aqueous solution at 25.0° C. The compound has five basic centers consisting of the four amines and the carboxylate function, from which only two could be accurately determined by potentiometric titrations (Table 1). […]

A short description of series [2]: Potentiometric titrations: stability constants and pM of Cu^2+ complexes. Type of series: physicochemical. How it is done:
Equipment and work conditions. The potentiometric setup has been described in Roger, M. et al. Inorg. […] Ligand solutions were prepared at about 2.0×10^−3 M, and the Cu^2+ and Zn^2+ solutions at ca. 0.05 M from analytical grade nitrate salts and standardized by complexometric titrations with H4edta (ethylenediaminetetraacetic acid). Sample solutions for titration contained approximately 0.04 mmol of ligand in a volume of 30 mL where the ionic strength was kept at 0.10 M using KNO3 as background electrolyte. Metal cations were added at 0.9 equiv. of the ligand amount in complexation titrations. Batch titrations were prepared in a similar way but with each titration point corresponding to 1/10 of the amount of a conventional titration sample.
Measurements. All measurements were carried out at 25.0±0.1° C. under inert atmosphere. The electromotive force of the sample solutions was measured after calibration of the electrodes by titration of a standard HNO3 solution at 2.0×10^−3 M in the work conditions. The [H^+] of the solutions was determined by measurement of the electromotive force of the cell, E=E^o′+Q log [H^+]+Ej. The term pH is defined as −log [H^+]. E^o′ and Q were determined from the acid region of the calibration curves. Deviations from the Nernst law at very low pH (pH<2.5) were corrected with the VLpH software (Calibration software from the maker of Hyperquad available for free at http://www.hyperquad.co.uk/), which performs a [H^+] correction based on a very low pH calibration procedure.
Calculations. The potentiometric data were refined with the Hyperquad software, and speciation diagrams were plotted using the HySS software. The overall equilibrium constants βi^H and βMmHhL1 are defined by βMmHhL1=[MmHhLl]/[M]^m[H]^h[L]^l (βi^H=[HhLl]/[H]^h[L]^l and βML-1L=βML(OH)×Kw). Differences in log units between the values of protonated (or hydrolysed) and non-protonated constants provide the stepwise (log K) reaction constants (being KMmHhL1=[MmHhLl]/[MmHh-1Ll][H]). The errors quoted are the standard deviations calculated by the fitting program from all the experimental data for each system.
The stability constants of the complexes formed by Hcb-te1pa with Cu^2+ and Zn^2+ were determined by potentiometric titrations in aqueous solution at 25.0° C. in 0.10 M KNO3 ionic strength (Table 2).
During titrations, each experimental point included a supplementary equilibration time in order to yield fully stabilized measurements. […] For this reason, batch titrations were prepared in the range of pH=4-6 and were left to equilibrate until full stabilization, while conventional titrations were used for the remaining pH regions.
For a correct comparison of the thermodynamic stability of the complexes of Hcb-te1pa with the corresponding values of other ligands from the literature, the pM values that take into account the variable basicity properties of different ligands were also calculated (Table 3). […] The thermodynamic stability is not the only important criterion to determine the efficiency of metal complexation because, depending on the application, other factors such as kinetic inertness or in vivo stability can be more important.

Consider `O=C(O)c1cccc(CN2CCCN3CCNCCCN(CC3)CC2)n1` [Hcb-te1pa, 6-(1,4,8,11-tetraazabicyclo[6.6.2]hexadecan-4-ylmethyl)picolinic acid], for which, in series [1], the “log βi^H, L + 2 H^+ ⇌ H2L” value is given as 25.13(5) log units; the “log βi^H, L + 3 H^+ ⇌ H3L” value is given as 27.56(5) log units; the “log βi^H, L + 4 H^+ ⇌ H4L” value is under 29.56 log units; the “log βi^H, L + H^+ ⇌ HL” value was over 15 log units. Moreover, in series [2] (25.0° C., I = 0.10M KNO3), the “log KMLHh, Cu^2+ + L ⇌ CuL” value stood at 26.00 log units and the “log βMLHh, Cu^2+ + L ⇌ CuL” value is 26.00(5) log units. In series [2] (overview table), the “b) thermodynamic stability: log K[CuL]” value is 26.00. Further, the “b) thermodynamic stability: pCu” value in series [2] (overview table, calculated pM) is 15.67. Further, the “Calculated pM, Cu^2+” value in series [2] (pH = 7.4, 100% excess of ligand, [M^2+]tot = 1 × 10^−5 M) is reported as 15.67.
